1 compound from ChEMBL document CHEMBL5579825, “Exploration of 1-(indolin-1-yl)-2-(thiazol-2-yl)ethan-1-one derivatives as novel anti-HBV agent with potential TLR7-agonistic effect” (Eur J Med Chem, 2024) can be followed below.

Data set [1] can be described thus: Half life in Sprague-Dawley rat at 10 mg/kg, IG measured for 12 hrs by UPLC-MS/MS analysis. The data set is classed as ADME, organism-based. To be noted: in vivo, po.
Data set [2] is described as follows: Selectivity index, ratio of CC50 for human HepG2.2.15 cells to IC50 for HBV infected in human HepG2.2.15 cells assessed as inhibition of viral DNA replication. The format is toxicity, cell-based.
The nature of data set [3]: Selectivity index, ratio of CC50 for human HepG2.2.15 cells to IC50 for HBsAg secretion in human HepG2.2.15 cells. The format is toxicity, cell-based. To be noted: HepG2.2.15 cells, read-out: Ratio CC50/IC50.
For data set [4], the system named is PBMC. In words: Induction of IFN-alpha production in human PBMC cells incubated for 24 hrs by ELISA. The data set is classed as functional, cell-based. To be noted: dose 0.4-10 µM. Background: In an ELISA, binding on a coated surface is turned into a signal by an enzyme label.
Data set [5] concerns the target T1, Toll-like receptor 7 (Homo sapiens) (UniProt Q9NYK1).
T1 sequence (whole entry): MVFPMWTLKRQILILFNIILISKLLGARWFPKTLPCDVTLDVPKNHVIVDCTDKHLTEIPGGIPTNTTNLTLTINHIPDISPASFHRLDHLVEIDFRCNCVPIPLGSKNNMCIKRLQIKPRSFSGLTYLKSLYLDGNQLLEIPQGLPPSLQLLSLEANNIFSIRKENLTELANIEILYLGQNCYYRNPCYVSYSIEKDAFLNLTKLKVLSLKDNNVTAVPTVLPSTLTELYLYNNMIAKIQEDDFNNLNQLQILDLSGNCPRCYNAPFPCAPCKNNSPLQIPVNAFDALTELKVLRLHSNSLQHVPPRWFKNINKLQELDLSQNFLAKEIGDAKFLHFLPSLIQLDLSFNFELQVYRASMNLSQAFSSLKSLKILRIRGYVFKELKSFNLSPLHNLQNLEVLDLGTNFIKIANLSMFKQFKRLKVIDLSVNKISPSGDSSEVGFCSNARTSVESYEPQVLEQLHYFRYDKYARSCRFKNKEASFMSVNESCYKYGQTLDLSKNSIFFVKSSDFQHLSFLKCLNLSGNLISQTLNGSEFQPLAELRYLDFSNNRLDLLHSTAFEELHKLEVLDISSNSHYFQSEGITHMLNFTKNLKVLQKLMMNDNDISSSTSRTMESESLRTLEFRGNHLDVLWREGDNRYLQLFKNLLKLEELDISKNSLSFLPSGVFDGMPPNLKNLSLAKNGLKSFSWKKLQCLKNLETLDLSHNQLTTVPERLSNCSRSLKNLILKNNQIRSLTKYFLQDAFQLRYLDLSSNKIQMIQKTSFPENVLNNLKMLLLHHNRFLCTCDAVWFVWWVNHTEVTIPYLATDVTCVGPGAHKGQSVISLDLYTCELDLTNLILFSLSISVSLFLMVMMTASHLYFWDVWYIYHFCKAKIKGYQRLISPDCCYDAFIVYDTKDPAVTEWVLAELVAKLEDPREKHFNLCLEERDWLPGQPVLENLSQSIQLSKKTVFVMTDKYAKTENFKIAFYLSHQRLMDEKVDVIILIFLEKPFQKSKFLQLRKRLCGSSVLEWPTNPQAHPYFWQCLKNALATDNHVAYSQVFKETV
In words: Agonist activity at human TLR7 expressed in HEK293T cells co-transfected with NF-kappaB/Renilla luciferase incubated for 48 hrs by Dual-luciferase reporter gene assay. To be noted: filed as agonist, dose 0.4-10 µM. The format is cell-based. (In a reporter assay the amount or activity of a reporter protein is the signal.)

Data set [6] can be described thus: Cmax in Sprague-Dawley rat at 10 mg/kg, IG measured for 12 hrs by UPLC-MS/MS analysis. The format is ADME, organism-based. To be noted: in vivo, po.
A short description of data set [7]: Cytotoxicity against human HepG2.2.15 cells incubated for 72 hrs by CCK8 assay. The data set is classed as toxicity, cell-based, HepG2 2.2.15. (In general: Tetrazolium dyes change colour on reduction, which living cells bring about.)
In data set [8] the test system is Hepatitis B virus. Put plainly: Antiviral activity against HBV infected in human HepG2.2.15 cells assessed as inhibition of viral DNA replication pre-transfected cells with viral genome followed by compound treatment for 6 days with replacement of medium containing compound on every 2 days by RT-PCR analysis. The format is functional, organism-based.
Data set [9] can be described thus: Inhibition of HBsAg secretion in human HepG2.2.15 cells treated for 6 days with replacement of medium containing compound on every 2 days by […]. The data set is classed as functional, cell-based. To be noted: HepG2 2.2.15.
Data set [10] can be described thus: Cytotoxicity against human HepG2.A64 cells incubated for 72 hrs by CCK8 assay. The data set is classed as toxicity, cell-based.
Another data set relates to HEK-293T. In words: Effect on NF-kappaB/Renilla luciferase expression in HEK293T cells at 0.4 to 10 uM incubated for 48 hrs by Dual-luciferase reporter gene assay. The format is functional, cell-based. To be noted: Homo sapiens, dose 0.4-10 µM.
Another data set concerns the target T2, Toll-like receptor 7 (Homo sapiens, UniProt Q9NYK1).
T2 sequence (Q9NYK1 whole entry): T1 sequence (whole entry)
Put plainly: Binding affinity to recombinant human TLR7 assessed as dissociation constant by SPR analysis.

Data set [11] deals with Hepatitis B virus. In words: Antiviral activity against HBV infected in human HepG2.A64 cells assessed as inhibition of viral DNA replication pre-transfected cells with viral genome followed by compound treatment for 3 days by RT-PCR analysis. The data set is classed as functional, organism-based. To be noted: HepG2.A64, 72 h.
Data set [12] in a line: Selectivity index, ratio of CC50 for human HepG2.A64 cells to IC50 for HBV infected in human HepG2.A64 cells assessed as inhibition of viral DNA replication. The format is toxicity, cell-based. To be noted: read-out: Ratio CC50/IC50.
The test system of data set [13] is Hepatitis B virus. In words: Antiviral activity against HBV infected in human HepG2.2.15 cells assessed as inhibition of viral DNA replication at 4 uM pre-transfected cells with viral genome followed by compound treatment for 6 days with replacement of medium containing compound on every 2 days by RT-PCR analysis relative to control. The data set is classed as functional. To be noted: HepG2.2.15, 144 h, time 6 day.

The test system of data set [14] is PBMC. Put plainly: Induction of TNF-alpha production in human PBMC cells incubated for 24 hrs by ELISA. The data set is classed as functional, cell-based. To be noted: dose 0.4-10 µM.
A short description of data set [15]: AUClast in Sprague-Dawley rat at 10 mg/kg, IG measured for 12 hrs by UPLC-MS/MS analysis. The format is ADME, organism-based. To be noted: in vivo, po.
Data set [16] has as its system Hepatitis B virus. In words: Antiviral activity against HBV infected in human HepG2.2.15 cells assessed as inhibition of viral DNA replication at 4 uM pre-transfected cells with viral genome followed by compound treatment for 72 hrs by RT-PCR analysis relative to control. The data set is classed as functional.
In data set [17] the test system is Hepatitis B virus. In words: Antiviral activity against HBV infected in LAM/ETV-resistant human HepG2.A64 cells assessed as inhibition of viral DNA replication at 4 uM pre-transfected cells with viral genome followed by compound treatment for 72 hrs by RT-PCR analysis relative to control. The data set is classed as functional.
Data set [18] can be described thus: Tmax in Sprague-Dawley rat at 10 mg/kg, IG measured for 12 hrs by UPLC-MS/MS analysis. The format is ADME, organism-based. To be noted: in vivo, po.
Data set [19] concerns PBMC. Put plainly: Induction of IL-2 production in human PBMC cells incubated for 24 hrs by ELISA. The format is functional, cell-based. To be noted: dose 0.4-10 µM.

Each structure is given as a SMILES string. The source made the active and inactive calls. The rule behind the calls is not given here. Some results are limits rather than exact numbers.

What is called half-life is how long it takes for the measured level to halve. Read a high half-life as slow loss. As usually defined, the Cmax is the maximum level reached in the sampled fluid or tissue. In general, CC50 refers to the concentration at which the toxic effect on the cells reaches its halfway point. A word on the IC50: it is the point on the concentration scale where inhibition reaches its midpoint. For orientation: Kd means the equilibrium constant for the complex coming apart. Usually inhibition stands for the relative decrease from the control value, in per cent. The term AUC(0-t) denotes the area under the concentration-time curve up to a stated or last time point. Higher therefore signals more exposure. For orientation: Tmax means the time from dosing to the highest level. In turn, `O=C(Cc1csc(COc2ccccc2F)n1)N1CCc2ccccc21` gave a half-life in [1] of 2 h. Besides, in [2], the “Ratio CC50/IC50” value is over 384.62. Also, the selectivity ratio is over 384 in data set [2] (HepG2.2.15 cells, read-out: Ratio CC50/IC50); over 1.93 in [3]; over 55.6 in [12]. Also, the Activity entry (in the data set on PBMC [4]; in [5]; in the data set on PBMC [14]; in the data set with PBMC [19]) was “Dose-Dependent Effect” in each case. In data set [6], this compound came in with a Cmax of 66 ng/mL. Further, the CC50 at 72 h in data set [7] is over 50 µM; in [10], over 20 µM. The figures for the IC50 (with Hepatitis B virus [8]; in [9]; with Hepatitis B virus [11]) were 0.13 µM, 25.9 µM and 0.36 µM, respectively. Besides, the result with HEK-293T was Active. The dissociation constant (Kd) on Toll-like receptor 7 was determined as 7.06 µM. Also, the inhibition at 4 µM in the data set with Hepatitis B virus [13] turned out to be 69.2%; in the data set with Hepatitis B virus [16], 71.7%; with Hepatitis B virus [17], 74.2%. In [15], the AUC(0-t) at 12 h came out at 252 ng·h/mL. Further, the time of peak concentration (Tmax) in [18] is 2 h.
